Test results as given in patent publication US4208410A, “Dibenzo[d,g][1,3,6]dioxazocine derivatives” (priority 1977, dated 1980).
Counter-ions that a name gives are not always drawn. Like-named read-outs stand apart in the source and are kept apart here.

Key:
[1] = Acute toxicity in white mice, peroral; conditions: mouse, in vivo, po, white mice CFLP
Method: Acute toxicity of the compounds was tested on white mice from the strain CFLP. Administration was effected perorally.

nicotine lethality = assay: animal or person; type: in vivo, white mice; conditions: po; for ED50: Mus musculus, read-out: ED50, inhibition of nicotine lethality; for LD50/ED50, inhibition of nicotine lethality: mouse, in vivo
Method: (§1) This activity was tested on white mice, on the basis of the inhibition of tremor induced by tremorine [1,1'-(2-butynylene)-dipyrrolidine] and of nicotine lethality. For comparison Trihexyphenidyl [α-cyclohexyl-α-phenyl-1-piperidinepropanol hydrochloride] and L-DOPA [L-(-)-β-(3,4-dihydroxyphenyl)alanine] are used.

[2] = system: tremor induced by tremorine; assay: Inhibition of tremor induced by tremorine (Science, 124, 79/1956/); type: in vivo, white mice; conditions: for ED50: Mus musculus, read-out: ED50, inhibition of tremor by tremorine
Method: as §1

mice [3] = assay: Duration of the local anaesthetic effect; type: in vivo
mice [4] = assay: Local anaesthetic activity (Acta Chirurg. Scand. 116, 351 (1958)); type: in vivo; conditions: for EC50 (concentration at which the local anaesthetic activity amounted to 50%): 0.25% and 0.5% solutions tested; for LD50/EC50: local anaesthetic activity
Method: In order to observe the local anaesthetic activity of the instant compounds 0.25% and 0.5% solution thereof were tested following the method described in Acta Chirurg. Scand. 116, 351 (1958). The test animals were mice.

SMILES: Clc1ccc2c(c1)N(CCN1CCCCC1)c1ccccc1OCO2 [Example 5, 2-Chloro-12H-12-(2-piperidinoethyl)-dibenzo[d,g][1,3,6]dioxazocine hydrochloride]
- LD50 [1]: 700 mg/kg
- ED50 (nicotine lethality): 60 mg/kg
- LD50/ED50, inhibition of nicotine lethality (nicotine lethality): 12
- ED50 ([2]; po, white mice): 18 mg/kg
- LD50/ED50, inhibition of tremor by tremorine ([2]; mouse, in vivo, po): 38.9
- Duration of the effect (mice [3]; 0.25% solution): 34 min
- Duration of the effect (mice [3]; 0.5% solution): 65 min
- EC50 (concentration at which the local anaesthetic activity amounted to 50%) (mice [4]): 0.32%
- LD50/EC50 (mice [4]): 2180

SMILES: Cl.OC(CCN1CCCCC1)(c1ccccc1)C1CCCCC1 (stereo not drawn) [Trihexyphenidyl, α-cyclohexyl-α-phenyl-1-piperidinepropanol hydrochloride, reference compound]
- ED50 (nicotine lethality): 80 mg/kg
- ED50 ([2]; po): 15 mg/kg
- LD50/ED50, inhibition of tremor by tremorine ([2]; p.o., white mice): 24

SMILES: CN(C)CCCN1c2ccccc2OCOc2ccc(Cl)cc21 [Example 3, 2-Chloro-12H-12-(3-dimethylaminopropyl)-dibenzo[d,g][1,3,6]dioxazocine maleinate]
- LD50 [1]: 760 mg/kg
- ED50 (nicotine lethality): 14 mg/kg
- LD50/ED50, inhibition of nicotine lethality (nicotine lethality): 54
- ED50 ([2]; po, white mice): 8 mg/kg
- LD50/ED50, inhibition of tremor by tremorine ([2]; mouse, in vivo, po): 95
- Duration of the effect (mice [3]; 0.25% solution): 71 min
- Duration of the effect (mice [3]; 0.5% solution): 103 min
- EC50 (concentration at which the local anaesthetic activity amounted to 50%) (mice [4]): 0.15%
- LD50/EC50 (mice [4]): 5060

SMILES: CCN(CC)CC(=O)Nc1c(C)cccc1C [Lidocaine, 2-diethylamino-2',6'-acetoxy-xylidide, reference compound]
- Duration of the effect (mice [3]; 0.25% solution): 25 min
- Duration of the effect (mice [3]; 0.5% solution): 37 min
- EC50 (concentration at which the local anaesthetic activity amounted to 50%) (mice [4]): 0.18%

SMILES: CN(C)CCCN1c2cc(Cl)ccc2OCOc2ccc(Cl)cc21 [Example 15, 2,10-Dichloro-12H-12-(3-dimethylaminopropyl)-dibenzo[d,g][1,3,6]dioxazocinemaleinate]
- LD50 [1]: 320 mg/kg
- ED50 (nicotine lethality): 9 mg/kg
- LD50/ED50, inhibition of nicotine lethality (nicotine lethality): 35.6
- ED50 ([2]; po, white mice): 4.3 mg/kg
- LD50/ED50, inhibition of tremor by tremorine ([2]; mouse, in vivo, po): 74.4

SMILES: CN1CCN(CCN2c3ccccc3OCOc3ccc(Cl)cc32)CC1 [Example 7, 2-Chloro-12H-12-[2-(N-methylpiperazino)-ethyl]dibenzo[d,g][1,3,6]dioxazocine dihydrochloride]
- LD50 [1]: 600 mg/kg
- ED50 ([2]; po, white mice): 30 mg/kg
- LD50/ED50, inhibition of tremor by tremorine ([2]; mouse, in vivo, po): 20
- Duration of the effect (mice [3]; 0.25% solution): 53 min
- Duration of the effect (mice [3]; 0.5% solution): 260 min
- EC50 (concentration at which the local anaesthetic activity amounted to 50%) (mice [4]): 0.13%
- LD50/EC50 (mice [4]): 4600

SMILES: CC(CN(C)C)CN1c2ccccc2OCOc2ccc(Cl)cc21 (stereo not shown) [Example 6, 2-Chloro-12H-12-(2-methyl-3-dimethylaminopropyl)dibenzo[d,g][1,3,6]dioxazocine hydrochloride]
- LD50 [1]: 270 mg/kg
- LD50/ED50, inhibition of nicotine lethality (nicotine lethality): 25
- ED50 ([2]; po, white mice): 11 mg/kg
- LD50/ED50, inhibition of tremor by tremorine ([2]; mouse, in vivo, po): 25
- Duration of the effect (mice [3]; 0.25% solution): 67 min
- Duration of the effect (mice [3]; 0.5% solution): 161 min
- EC50 (concentration at which the local anaesthetic activity amounted to 50%) (mice [4]): 0.12%
- LD50/EC50 (mice [4]): 2250

SMILES: Clc1ccc2c(c1)Nc1ccccc1OCO2 [Example 1, 2-Chloro-12H-dibenzo[d,g][1,3,6]dioxazocine]
- LD50 [1]: > 2000 mg/kg

SMILES: Clc1ccc2c(c1)N(CCN1CCOCC1)c1ccccc1OCO2 [Example 8, 2-Chloro-12H-12-(2-morpholinoethyl)-dibenzo[d,g][1,3,6]dioxazocine maleinate]
- LD50 [1]: > 2000 mg/kg
- ED50 (nicotine lethality): 140 mg/kg
- LD50/ED50, inhibition of nicotine lethality (nicotine lethality): 14

SMILES: N[C@@H](Cc1ccc(O)c(O)c1)C(=O)O [L-DOPA, L-(-)-β-(3,4-dihydroxyphenyl)alanine, reference compound]
- ED50 (nicotine lethality): 500 mg/kg
- LD50/ED50, inhibition of nicotine lethality (nicotine lethality): < 10
- ED50 ([2]; po, white mice): > 500 mg/kg
- LD50/ED50, inhibition of tremor by tremorine ([2]; mouse, in vivo, po): < 5
